# Laboratory results: PMC5201331, “Subchronic Toxicities of HZ1006, a Hydroxamate-Based Histone Deacetylase Inhibitor, in Beagle Dogs and Sprague-Dawley Rats” (International Journal of Environmental Research and Public …, 2016)
# System: Beagle dogs
# Assay: Subchronic toxicity test in Beagle dogs: serum biochemistry
# Type: in vivo
# Settings: dogs
# Procedure: HZ1006 was administered orally to dogs (four/sex/group) at doses of 80, 40, 20, 5 and 0 (control) mg/kg/day, and the dosage volume was 2 mL/kg. The dogs received test doses with the exact amounts on a weekly basis based on current body weights. […] The other dogs in the above groups were dissected on the planned days. For the other groups, half of the dogs were anatomized on d28 and the remaining half on d42.
# The following indexes were examined for the dogs used in the study, twice during the pre-dosage period and on d14, d28 and d42. The following parameters were evaluated on d28 and d42 for the rats in the study:
# The animal blood samples were collected in the tubes containing the coagulator and centrifuged at 500 g for 10 min; the supernatant was then collected into a new tube. The serum biochemistry indexes included the following: alanine aminotransferase (ALT), alkaline phosphatase (ALP), aspartate aminotransferase (AST), blood urea (BU), lactate dehydrogenase (LDH), total bilirubin (TBIL), creatinine (Crea), albumin (ALB), total protein (TP), triglycerides (TG), total cholesterol (TCH), γ-glutamyltranspeptidase (g-GT), glucose (GLU), creatine phosphokinase (CPK), uric acid (UA), phosphorus (P), and calcium (Ca^2+). The above parameters were analyzed using an Automatic Analyzer 7080 provided by Hitachi High-Technologies Corp. (Tokyo, Japan). An Na/K/Cl Analyzer EasyLyte PLUS from Medica Corp. (Bedford, MA, USA), was used to determine the levels of chloride (Cl^−), sodium (Na^+) and potassium (K^+) in the blood samples.
# [1] = 20 mg/kg/day oral, d42 (recovery)
# [2] = 40 mg/kg/day oral, d0 (pre-dose)
# [3] = 40 mg/kg/day oral, d42 (recovery)
# [4] = 80 mg/kg/day oral, d0 (pre-dose)
# [5] = 80 mg/kg/day oral, d42 (recovery)
structure (smiles),measurement,setting,value
CCCCCCCNc1cc(/C=C/C(=O)NO)ccc1OCCN(CC)CC [HZ1006],ALP: Alkaline phosphatase,"20 mg/kg/day oral, d28",0.98 ± 0.27 µmol/s/L
same,ALT: Alanine aminotransferase,"20 mg/kg/day oral, d28",486 ± 90 nmol/s/L
same,AST: Aspartate aminotransferase,"20 mg/kg/day oral, d28",408 ± 57 nmol/s/L
same,BU: Blood urea,"20 mg/kg/day oral, d28",5.37 ± 1.78 mmol/L
same,CPK: Creatine phosphokinase,"20 mg/kg/day oral, d28",2.38 ± 0.53 µmol/s/L
same,CREA: Creatinine,"20 mg/kg/day oral, d28",52.1 ± 10.3 µmol/L
same,LDH: Lactate dehydrogenase,"20 mg/kg/day oral, d28",1.54 ± 0.74 µmol/s/L
same,TBIL: Total bilirubin,"20 mg/kg/day oral, d28",2.29 ± 0.31 µmol/L
same,TCH: Total cholesterol,"20 mg/kg/day oral, d28",3.95 ± 0.55 mmol/L
same,TG: Triglycerides,"20 mg/kg/day oral, d28",0.34 ± 0.05 mmol/L
same,ALP: Alkaline phosphatase,[1],1.00 ± 0.24 µmol/s/L
same,ALT: Alanine aminotransferase,[1],523 ± 148 nmol/s/L
same,AST: Aspartate aminotransferase,[1],412 ± 31 nmol/s/L
same,BU: Blood urea,[1],4.05 ± 0.37 mmol/L
same,CPK: Creatine phosphokinase,[1],2.17 ± 0.30 µmol/s/L
same,CREA: Creatinine,[1],49.6 ± 0.6 µmol/L
same,LDH: Lactate dehydrogenase,[1],2.28 ± 0.93 µmol/s/L
same,TBIL: Total bilirubin,[1],1.88 ± 0.19 µmol/L
same,TCH: Total cholesterol,[1],3.81 ± 0.18 mmol/L
same,TG: Triglycerides,[1],0.33 ± 0.12 mmol/L
same,ALP: Alkaline phosphatase,[2],1.62 ± 0.40 µmol/s/L
same,ALT: Alanine aminotransferase,[2],526 ± 179 nmol/s/L
same,AST: Aspartate aminotransferase,[2],462 ± 57 nmol/s/L
same,BU: Blood urea,[2],3.95 ± 0.48 mmol/L
same,CPK: Creatine phosphokinase,[2],3.27 ± 0.76 µmol/s/L
same,CREA: Creatinine,[2],49.2 ± 6.2 µmol/L
same,LDH: Lactate dehydrogenase,[2],3.39 ± 1.55 µmol/s/L
same,TBIL: Total bilirubin,[2],2.24 ± 0.24 µmol/L
same,TCH: Total cholesterol,[2],5.38 ± 1.95 mmol/L
same,TG: Triglycerides,[2],0.41 ± 0.10 mmol/L
same,ALP: Alkaline phosphatase,"40 mg/kg/day oral, d14",1.03 ± 0.32 µmol/s/L
same,ALT: Alanine aminotransferase,"40 mg/kg/day oral, d14",433 ± 304 nmol/s/L
same,AST: Aspartate aminotransferase,"40 mg/kg/day oral, d14",313 ± 23 nmol/s/L
same,BU: Blood urea,"40 mg/kg/day oral, d14",4.52 ± 1.05 mmol/L
same,CPK: Creatine phosphokinase,"40 mg/kg/day oral, d14",2.36 ± 0.19 µmol/s/L
same,CREA: Creatinine,"40 mg/kg/day oral, d14",52.5 ± 6.1 µmol/L
same,LDH: Lactate dehydrogenase,"40 mg/kg/day oral, d14",1.29 ± 0.68 µmol/s/L
same,TBIL: Total bilirubin,"40 mg/kg/day oral, d14",1.81 ± 0.24 µmol/L
same,TCH: Total cholesterol,"40 mg/kg/day oral, d14",4.47 ± 0.71 mmol/L
same,TG: Triglycerides,"40 mg/kg/day oral, d14",0.41 ± 0.12 mmol/L
same,ALP: Alkaline phosphatase,"40 mg/kg/day oral, d28",1.30 ± 0.24 µmol/s/L
same,ALT: Alanine aminotransferase,"40 mg/kg/day oral, d28",347 ± 78 nmol/s/L
same,AST: Aspartate aminotransferase,"40 mg/kg/day oral, d28",378 ± 71 nmol/s/L
same,BU: Blood urea,"40 mg/kg/day oral, d28",4.66 ± 0.96 mmol/L
same,CPK: Creatine phosphokinase,"40 mg/kg/day oral, d28",3.00 ± 0.94 µmol/s/L
same,CREA: Creatinine,"40 mg/kg/day oral, d28",52.6 ± 9.8 µmol/L
same,LDH: Lactate dehydrogenase,"40 mg/kg/day oral, d28",2.76 ± 2.49 µmol/s/L
same,TBIL: Total bilirubin,"40 mg/kg/day oral, d28",2.04 ± 0.43 µmol/L
same,TCH: Total cholesterol,"40 mg/kg/day oral, d28",4.66 ± 1.85 mmol/L
same,TG: Triglycerides,"40 mg/kg/day oral, d28",0.43 ± 0.18 mmol/L
same,ALP: Alkaline phosphatase,[3],1.34 ± 0.34 µmol/s/L
same,ALT: Alanine aminotransferase,[3],514 ± 112 nmol/s/L
same,AST: Aspartate aminotransferase,[3],468 ± 80 nmol/s/L
same,BU: Blood urea,[3],4.87 ± 1.56 mmol/L
same,CPK: Creatine phosphokinase,[3],3.00 ± 1.32 µmol/s/L
same,CREA: Creatinine,[3],58.8 ± 2.0 µmol/L
same,LDH: Lactate dehydrogenase,[3],3.50 ± 2.49 µmol/s/L
same,TBIL: Total bilirubin,[3],1.88 ± 0.08 µmol/L
same,TCH: Total cholesterol,[3],4.55 ± 1.10 mmol/L
same,TG: Triglycerides,[3],0.45 ± 0.04 mmol/L
same,ALP: Alkaline phosphatase,[4],1.62 ± 0.49 µmol/s/L
same,ALT: Alanine aminotransferase,[4],591 ± 143 nmol/s/L
same,AST: Aspartate aminotransferase,[4],493 ± 103 nmol/s/L
same,BU: Blood urea,[4],4.38 ± 0.72 mmol/L
same,CPK: Creatine phosphokinase,[4],3.24 ± 0.77 µmol/s/L
same,CREA: Creatinine,[4],53.4 ± 5.2 µmol/L
same,LDH: Lactate dehydrogenase,[4],2.71 ± 0.97 µmol/s/L
same,TBIL: Total bilirubin,[4],2.64 ± 0.41 µmol/L
same,TCH: Total cholesterol,[4],4.03 ± 1.04 mmol/L
same,TG: Triglycerides,[4],0.38 ± 0.15 mmol/L
same,ALP: Alkaline phosphatase,"80 mg/kg/day oral, d14",1.27 ± 1.15 µmol/s/L
same,ALT: Alanine aminotransferase,"80 mg/kg/day oral, d14",312 ± 38 nmol/s/L
same,AST: Aspartate aminotransferase,"80 mg/kg/day oral, d14",386 ± 104 nmol/s/L
same,BU: Blood urea,"80 mg/kg/day oral, d14",4.66 ± 0.93 mmol/L
same,CPK: Creatine phosphokinase,"80 mg/kg/day oral, d14",3.29 ± 1.86 µmol/s/L
same,CREA: Creatinine,"80 mg/kg/day oral, d14",58.2 ± 4.8 µmol/L
same,LDH: Lactate dehydrogenase,"80 mg/kg/day oral, d14",1.76 ± 1.85 µmol/s/L
same,TBIL: Total bilirubin,"80 mg/kg/day oral, d14",2.74 ± 2.93 µmol/L
same,TCH: Total cholesterol,"80 mg/kg/day oral, d14",4.62 ± 2.51 mmol/L
same,TG: Triglycerides,"80 mg/kg/day oral, d14",0.56 ± 0.28 mmol/L
same,ALP: Alkaline phosphatase,"80 mg/kg/day oral, d28",1.01 ± 0.27 µmol/s/L
same,ALT: Alanine aminotransferase,"80 mg/kg/day oral, d28",307 ± 51 nmol/s/L
same,AST: Aspartate aminotransferase,"80 mg/kg/day oral, d28",310 ± 59 nmol/s/L
same,BU: Blood urea,"80 mg/kg/day oral, d28",5.25 ± 1.21 mmol/L
same,CPK: Creatine phosphokinase,"80 mg/kg/day oral, d28",1.73 ± 0.24 µmol/s/L
same,CREA: Creatinine,"80 mg/kg/day oral, d28",54.3 ± 8.9 µmol/L
same,LDH: Lactate dehydrogenase,"80 mg/kg/day oral, d28",0.97 ± 0.30 µmol/s/L
same,TBIL: Total bilirubin,"80 mg/kg/day oral, d28",2.19 ± 0.20 µmol/L
same,TCH: Total cholesterol,"80 mg/kg/day oral, d28",4.16 ± 1.39 mmol/L
same,TG: Triglycerides,"80 mg/kg/day oral, d28",0.45 ± 0.11 mmol/L
same,ALP: Alkaline phosphatase,[5],0.99 ± 0.14 µmol/s/L
same,ALT: Alanine aminotransferase,[5],549 ± 181 nmol/s/L
same,AST: Aspartate aminotransferase,[5],460 ± 83 nmol/s/L
same,BU: Blood urea,[5],4.93 ± 0.50 mmol/L
same,CPK: Creatine phosphokinase,[5],2.86 ± 0.53 µmol/s/L
same,CREA: Creatinine,[5],65.9 ± 11.3 µmol/L
same,TBIL: Total bilirubin,[5],1.90 ± 0.23 µmol/L
same,TCH: Total cholesterol,[5],3.52 ± 0.84 mmol/L
same,TG: Triglycerides,[5],0.40 ± 0.14 mmol/L
